Legend:
hCXCR4 = hCXCR4 (Homo sapiens, UniProt P61073); test: CXCL12^AF647 competition binding, Jurkat cells
Experimental: Binding affinity to human (h)CXCR4 and human (h)ACKR3 was investigated with a competition binding assay using CXCL12^AF647 (Almac, UK) as the tracer molecule. Jurkat cells (human T lymphocytic cell line, hCXCR4 positive) or U87.CD4.ACKR3 cells (human glioblastoma cell line, hACKR3 positive) were resuspended in assay buffer [Hank’s Balanced Salt Solution (HBSS, Thermo Fisher Scientific), 20 mM HEPES buffer, 0.2% bovine serum albumin (Sigma-Aldrich), pH 7.4] at 3 × 10^5 cells per sample and treated with increasing concentrations of compound at RT for 15 min. A fixed amount of CXCL12^AF647 (2.9 nM and 1.45 nM in case of hCXCR4 and hACKR3, respectively) was added and cells were incubated at RT for 30 min protected from light. Cells were finally fixed in 1% paraformaldehyde in DPBS and the CXCL12^AF647 binding signal [i.e., mean fluorescence intensity (MFI)] was quantified by flow cytometry (FACSCanto™; Becton Dickinson). Data were analyzed with FlowJo® Software. For all samples the background MFI (i.e., autofluorescence of untreated and unlabeled cells) was subtracted. The percentage inhibition for each compound concentration was calculated relative to the positive control (i.e., untreated cells exposed to CXCL12^AF647 only). Four parameter non-linear curve fitting (GraphPad Prism 9.0.2) was used to determine the IC50 value for binding inhibition.

hCCR5 = molecular target: T1, hCCR5 (Homo sapiens, UniProt P51681); test: Ca2+ mobilization assay, U87.CD4.CCR5 cells, CCL5-induced; format: cell-based; details: antagonism of CCL5 response
T1 construct: expressed in transfected cells; host or cells: U87.CD4.CCR5
Experimental: The calcium (Ca^2+) mobilization assay was described in detail before. Briefly, U87.CD4.CXCR4 or U87.CD4.CCR5 cells (2 × 10^4 cells per well in DMEM/10% FBS/0.01 M HEPES) were seeded in gelatin-coated (Sigma-Aldrich; 0.1% gelatin in DPBS) black-walled 96-well plates and incubated overnight at 37 °C and 5% CO2. The next day, cells were loaded with the fluorescent Ca^2+ indicator Fluo-2 acetoxymethyl (AM) ester (4 μM final concentration; Abcam) and incubated at RT in the dark for 45 min. Then, cells were washed with assay buffer (see above) and subsequently incubated with different concentrations of compound for ~ 10 min prior to addition of 6.25 nM CXCL12 (in case of CXCR4) or 6.4 nM CCL5 (in case of CCR5). Fluctuations in intracellular Ca^2+ levels were measured in real time by the FLIPR Tetra® device (Molecular Devices) in all 96 wells simultaneously. The response (Relative Light Units, RLUs) over baseline was calculated (ScreenWorks 4.0® software, Molecular Devices) by dividing the RLUs by a base line value measured just before addition of CXCL12 or CCL5, respectively. Inhibition of the Ca^2+ response was determined taking into account negative (i.e., untreated cells without stimulation) and positive (i.e., untreated cells stimulated with either CXCL12 or CCL5) control samples.

[1] = test system: bleomycin-induced lung fibrosis in C57BL/6J mice; test: Bleomycin-induced lung fibrosis model; format: in vivo, mouse; details: 15 mg/kg/dose SC BID, day 21, vs bleomycin + 23% HPBCD
Experimental: A preclinical mouse model for bleomycin-induced lung fibrosis was performed at the Department of Metabolic Health Research, The Netherlands Organisation for Applied Scientific Research (TNO) (Leiden, The Netherlands). Thirty-eight male C57BL/6J mice were matched on body weight prior to the study and divided into three groups (experimental study design, Supplementary Figure S1b). At day 0, 10–12-week-old mice received a single oropharyngeal administration of bleomycin (0.04U/mouse) (group 2 and 3). Control mice (group 1) received phosphate buffered saline (PBS) instead. At day 0, bleomycin-treated mice received either compound 18a (15 mg/kg/dose, subcutaneous, twice daily, group 3), or its corresponding vehicle control (23% HPBCD, subcutaneous, twice daily, group 2)]. PBS-treated mice received 23% HPBCD throughout the study (subcutaneous, twice daily, group 1). At day 21, mice were sacrificed under isoflurane anesthesia and plasma samples and lung lobes were collected. As a primary endpoint the histology lung fibrosis score (modified Ashcroft score) was used based on a Masson’s Trichrome staining on cross-sections of the left lung lobe. As a secondary endpoint collagen content (hydroxyproline) was analyzed on the medial and accessory lobes by using a chromogenic assay according to the manufacturer’s instructions (QuickZyme Biosciences, Leiden, the Netherlands).

[2] = design: method as in PMID 29627981; details: mice; cited from earlier work

hCXCR4, sequence (P61073 whole entry): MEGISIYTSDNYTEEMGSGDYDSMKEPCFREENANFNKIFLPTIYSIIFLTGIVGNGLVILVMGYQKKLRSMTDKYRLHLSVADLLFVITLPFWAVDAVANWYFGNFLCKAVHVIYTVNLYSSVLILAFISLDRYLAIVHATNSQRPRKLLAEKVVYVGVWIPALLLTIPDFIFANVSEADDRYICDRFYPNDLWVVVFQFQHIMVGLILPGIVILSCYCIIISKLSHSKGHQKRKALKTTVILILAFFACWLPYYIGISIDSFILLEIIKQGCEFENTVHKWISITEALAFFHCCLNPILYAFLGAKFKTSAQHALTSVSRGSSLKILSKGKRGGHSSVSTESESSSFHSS
T1 sequence (P51681 whole entry): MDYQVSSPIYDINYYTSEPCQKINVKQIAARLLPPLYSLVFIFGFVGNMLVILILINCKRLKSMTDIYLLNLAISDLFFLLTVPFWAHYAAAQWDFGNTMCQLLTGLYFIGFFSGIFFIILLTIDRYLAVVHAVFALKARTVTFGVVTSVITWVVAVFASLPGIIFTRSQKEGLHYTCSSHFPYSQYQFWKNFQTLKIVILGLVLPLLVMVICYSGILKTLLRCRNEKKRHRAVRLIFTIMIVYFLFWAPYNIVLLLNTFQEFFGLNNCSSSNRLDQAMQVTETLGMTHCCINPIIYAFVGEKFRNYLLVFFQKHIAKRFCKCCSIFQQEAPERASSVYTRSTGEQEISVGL

IC50 (hCXCR4): > 4 µM
IC50 (hCCR5): > 40 µM
Compound: CCc1ccn2ccnc2c1N1CCCN(C(CC(N)=O)C2CCN(C(=O)C3CC4CCC3O4)CC2)CC1 (stereo not shown) [compound 18a]
development of lung fibrosis (modified Ashcroft score, hydroxyproline) [1]: did not counteract the development of fibrosis
oral bioavailability [2]: not orally bioavailable

— publication PMC9106635, “Stimulation of the atypical chemokine receptor 3 (ACKR3) by a small-molecule agonist attenuates fibrosis in a preclinical liver but not lung injury model” (Cellular and Molecular Life Sciences: CMLS, 2022)
